# Measurements published in patent publication US9708312B2, “Dihydropyrimidinoisoquinolinones and pharmaceutical compositions thereof for the treatment of inflammatory disorders (GPR84 antagonists)” (GALAPAGOS NV, priority 2012, dated 2017).
# Molecular target: T1, GPR84 (Homo sapiens, UniProt Q9NQS5)
# T1 construct: expressed in transfected cells
# Test: GPR84 [35S]GTPγS binding assay, HEPES buffer
# Type: biochemical
# Conditions: 3,3′ di indolylmethane at EC80, membranes from stable cell line over expressing GPR84
# Protocol: 1.1. Cell Based Assay: GTp-γ S Binding Assay.
# The following assay can be used for determination of GPR84 activation.
# The assay is performed in a 96 well plate where the following reagents are added. […] In a last step, 30 μL of a mixture consisting of membranes-GTPγS-SpA beads is added [mixture consists of 20 μg/well membranes derived from stable cell line over expressing GPR84 (membranes are pre-incubated with 0.1 μM GDP for 15 min at 4° C.), 0.1 nM [^35S]GTPγS (Perkin Elmer, NEG030) and 0.5 mg/well PVT-WGA SpA beads (Perkin Elmer, RPNQ0001)]. All components are diluted in assay buffer containing 20 mM HEPES pH 7.4; 5 mM MgCl2; 250 mM NaCl; 0.05% BSA; 75 ug/mL saponin Reactions are incubated for 90 min at room temperature followed by centrifugation at 2000 rpm during 15 min. Plates are read on a Topcount reader (Perkin Elmer) immediately after centrifugation (readout time, 1 min/well).
# T1 sequence (Q9NQS5 whole entry): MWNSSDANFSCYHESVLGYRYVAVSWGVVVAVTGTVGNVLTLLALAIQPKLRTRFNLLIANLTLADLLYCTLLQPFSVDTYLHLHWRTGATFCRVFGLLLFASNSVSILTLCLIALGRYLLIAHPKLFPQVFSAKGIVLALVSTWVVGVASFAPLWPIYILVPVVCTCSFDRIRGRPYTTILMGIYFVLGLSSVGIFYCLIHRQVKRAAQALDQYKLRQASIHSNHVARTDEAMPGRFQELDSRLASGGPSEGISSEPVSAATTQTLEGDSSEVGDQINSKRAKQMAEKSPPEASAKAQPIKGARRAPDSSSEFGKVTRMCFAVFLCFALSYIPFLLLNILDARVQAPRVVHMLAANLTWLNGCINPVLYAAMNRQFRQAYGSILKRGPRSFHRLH
row,IC50,Compound
1,0.01 to 100 nM,"N#Cc1ccc(COc2ccc3c(c2)CCn2c-3cc(OCC3CCCO3)nc2=O)cc1 (stereo not drawn) [compound 17, 4-[4-oxo-2-(tetrahydro-furan-2-ylmethoxy)-6,7-dihydro-4H-pyrimido[6,1-a]isoquinolin-9-yloxymethyl]-benzonitrile]"
2,100 to 500 nM,"COC(=O)c1ccc(COc2ccc3c(c2)CCn2c-3cc(OCC3CCCO3)nc2=O)cc1 (stereo not drawn) [compound 26, 4-[4-oxo-2-(tetrahydro-furan-2-ylmethoxy)-6,7-dihydro-4H-pyrimido[6,1-a]isoquinolin-9-yloxymethyl]-benzoic acid methyl ester]"
3,0.01 to 100 nM,"NC(=O)NCC#Cc1ccc2c(c1)CCn1c-2cc(OCC2COc3ncccc3O2)nc1=O (stereo not drawn) [compound 175, {3-[2-(2,3-Dihydro-[1,4]dioxino[2,3-b]pyridin-2-ylmethoxy)-4-oxo-6,7-dihydro-4H-pyrimido[6,1-a]isoquinolin-9-yl]-prop-2-ynyl}-urea]"
4,100 to 500 nM,"NC1(C#Cc2ccc3c(c2)CCn2c-3cc(OCC3COc4ncccc4O3)nc2=O)CCCCC1 (stereo not drawn) [compound 184, 9-(1-amino-cyclohexylethynyl)-2-(2,3-dihydro-[1,4]dioxino[2,3-b]pyridin-2-ylmethoxy)-6,7-dihydro-pyrimido[6,1-a]isoquinolin-4-one]"
5,0.01 to 100 nM,"CC(C)(C)c1nc(COc2ccc3c(c2)CCn2c-3cc(OCC3COc4ncccc4O3)nc2=O)no1 (stereo not drawn) [compound 158, 9-(5-tert-Butyl-[1,2,4]oxadiazol-3-ylmethoxy)-2-(2,3-dihydro-[1,4]dioxino[2,3-b]pyridin-2-ylmethoxy)-6,7-dihydro-pyrimido[6,1-a]isoquinolin-4-one]"
6,100 to 500 nM,"O=c1nc(OCC2CCCO2)cc2n1CCc1cc(OCc3ccc(F)cc3)ccc1-2 (stereo not drawn) [compound 24, 9-(4-fluoro-benzyloxy)-2-(tetrahydro-furan-2-ylmethoxy)-6,7-dihydro-pyrimido[6,1-a]isoquinolin-4-one]"
7,0.01 to 100 nM,"CCC(O)(C#Cc1ccc2c(c1)CCn1c-2cc(OCC2COc3ncccc3O2)nc1=O)CC (stereo not drawn) [compound 186, 2-(2,3-dihydro-[1,4]dioxino[2,3-b]pyridin-2-ylmethoxy)-9-(3-ethyl-3-hydroxy-pent-1-ynyl)-6,7-dihydro-pyrimido[6,1-a]isoquinolin-4-one]"
8,0.01 to 100 nM,"N#Cc1cccc(-c2ccc3c(c2)CCn2c-3cc(OCC3COc4ncccc4O3)nc2=O)c1 (stereo not drawn) [compound 98, 3-[2-(2,3-dihydro-[1,4]dioxino[2,3-b]pyridin-2-ylmethoxy)-4-oxo-6,7-dihydro-4H-pyrimido[6,1-a]isoquinolin-9-yl]-benzonitrile]"
9,0.01 to 100 nM,"COc1ccccc1OCCOc1ccc2c(c1)CCn1c-2cc(OCC2CCCO2)nc1=O (stereo not drawn) [compound 40, 9-[2-(2-methoxy-phenoxy)-ethoxy]-2-(tetrahydro-furan-2-ylmethoxy)-6,7-dihydro-pyrimido[6,1-a]isoquinolin-4-one]"
10,500 to 1000 nM,"N#Cc1ccccc1-c1ccc2c(c1)CCn1c-2cc(OCC2CCCO2)nc1=O (stereo not drawn) [compound 107, 2-[4-oxo-2-(tetrahydro-furan-2-ylmethoxy)-6,7-dihydro-4H-pyrimido[6,1-a]isoquinolin-9-yl]-benzonitrile]"
11,100 to 500 nM,"CCN(CC)CC#Cc1ccc2c(c1)CCn1c-2cc(OCC2COc3ncccc3O2)nc1=O (stereo not drawn) [compound 177, 9-(3-diethylamino-prop-1-ynyl)-2-(2,3-dihydro-[1,4]dioxino[2,3-b]pyridin-2-ylmethoxy)-6,7-dihydro-pyrimido[6,1-a]isoquinolin-4-one]"
12,0.01 to 100 nM,"CC(C)(C)OC(=O)COc1ccc2c(c1)CCn1c-2cc(OCC2COc3ccccc3O2)nc1=O (stereo not drawn) [compound 29, [2-(2,3-dihydro-benzo[1,4]dioxin-2-ylmethoxy)-4-oxo-6,7-dihydro-4H-pyrimido[6,1-a]isoquinolin-9-yloxy]-acetic acid tert-butyl ester]"
13,100 to 500 nM,"O=c1nc(OCC2COc3ccccc3O2)cc2n1CCc1cc(OCc3ncco3)ccc1-2 (stereo not drawn) [compound 73, 2-(2,3-dihydro-benzo[1,4]dioxin-2-ylmethoxy)-9-(oxazol-2-ylmethoxy)-6,7-dihydro-pyrimido[6,1-a]isoquinolin-4-one]"
14,0.01 to 100 nM,"O=c1nc(OCC2CCCO2)cc2n1CCc1cc(OCc3ccccc3[N+](=O)[O-])ccc1-2 (stereo not drawn) [compound 25, 9-(2-nitro-benzyloxy)-2-(tetrahydro-furan-2-ylmethoxy)-6,7-dihydro-pyrimido[6,1-a]isoquinolin-4-one]"
15,0.01 to 100 nM,"CC(O)(C#Cc1ccc2c(c1)CCn1c-2cc(OCC2COc3ncccc3O2)nc1=O)c1ccccc1 (stereo not drawn) [compound 187, 2-(2,3-Dihydro-[1,4]dioxino[2,3-b]pyridin-2-ylmethoxy)-9-(3-hydroxy-3-phenyl-but-1-ynyl)-6,7-dihydro-pyrimido[6,1-a]isoquinolin-4-one]"
16,0.01 to 100 nM,"O=c1nc(OCC2COc3ncccc3O2)cc2n1CCc1cc(C#CCNc3ccccc3)ccc1-2 (stereo not drawn) [compound 194, 2-(2,3-dihydro-[1,4]dioxino[2,3-b]pyridin-2-ylmethoxy)-9-(3-phenylamino-prop-1-ynyl)-6,7-dihydro-pyrimido[6,1-a]isoquinolin-4-one]"
17,0.01 to 100 nM,"CCCCn1nnnc1COc1ccc2c(c1)CCn1c-2cc(OCC2COc3ccccc3O2)nc1=O (stereo not drawn) [compound 70, 9-(1-butyl-1H-tetrazol-5-ylmethoxy)-2-(2,3-dihydro-benzo[1,4]dioxin-2-ylmethoxy)-6,7-dihydro-pyrimido[6,1-a]isoquinolin-4-one]"
18,100 to 500 nM,"Cn1cc(-c2cccc(COc3ccc4c(c3)CCn3c-4cc(OCC4CCCO4)nc3=O)n2)cn1 (stereo not drawn) [compound 55, 9-[6-(1-methyl-1H-pyrazol-4-yl)-pyridin-2-ylmethoxy]-2-(tetrahydro-furan-2-ylmethoxy)-6,7-dihydro-pyrimido[6,1-a]isoquinolin-4-one]"
19,500 to 1000 nM,"CC(C)C1CC(COc2cc3n(c(=O)n2)CCc2cc(C#CC4CC4)ccc2-3)O1 (stereo not drawn) [compound 203, 9-cyclopropylethynyl-2-(4-isopropyl-oxetan-2-ylmethoxy)-6,7-dihydro-pyrimido[6,1-a]isoquinolin-4-one]"
20,0.01 to 100 nM,"O=c1nc(OCC2COc3ncccc3O2)cc2n1CCc1cc(-c3ccncc3)ccc1-2 (stereo not drawn) [compound 97, 2-(2,3-dihydro-[1,4]dioxino[2,3-b]pyridin-2-ylmethoxy)-9-pyridin-4-yl-6,7-dihydro-pyrimido[6,1-a]isoquinolin-4-one]"
21,500 to 1000 nM,"CN(C)CCCOc1ccc2c(c1)CCn1c-2cc(OCC2COc3ccccc3O2)nc1=O (stereo not drawn) [compound 82, 2-(2,3-Dihydro-benzo[1,4]dioxin-2-ylmethoxy)-9-(3-dimethylamino-propoxy)-6,7-dihydro-pyrimido[6,1-a]isoquinolin-4-one]"
22,100 to 500 nM,"CN(CC#Cc1ccc2c(c1)CCn1c-2cc(OCC2COc3ncccc3O2)nc1=O)Cc1ccccc1 (stereo not drawn) [compound 173, 9-[3-(benzyl-methyl-amino)-prop-1-ynyl]-2-(2,3-dihydro-[1,4]dioxino[2,3-b]pyridin-2-ylmethoxy)-6,7-dihydro-pyrimido[6,1-a]isoquinolin-4-one]"
23,0.01 to 100 nM,"O=c1nc(OCC2COc3ncccc3O2)cc2n1CCc1ccccc1-2 (stereo not drawn) [compound 146, 2-(2,3-dihydro-[1,4]dioxino[2,3-b]pyridin-2-ylmethoxy)-6,7-dihydro-pyrimido[6,1-a]isoquinolin-4-one]"
24,0.01 to 100 nM,"O=C(COc1ccc2c(c1)CCn1c-2cc(OCC2COc3ccccc3O2)nc1=O)NCc1ccccc1 (stereo not drawn) [compound 78, N-benzyl-2-[2-(2,3-dihydro-benzo[1,4]dioxin-2-ylmethoxy)-4-oxo-6,7-dihydro-4H-pyrimido[6,1-a]isoquinolin-9-yloxy]-acetamide]"
25,0.01 to 100 nM,"CNC(=O)c1ccc(-c2ccc3c(c2)CCn2c-3cc(OCC3COc4ncccc4O3)nc2=O)cn1 (stereo not drawn) [compound 147, 5-[2-(2,3-dihydro-[1,4]dioxino[2,3-b]pyridin-2-ylmethoxy)-4-oxo-6,7-dihydro-4H-pyrimido[6,1-a]isoquinolin-9-yl]-pyridine-2-carboxylic acid methylamide]"
26,500 to 1000 nM,"O=c1nc(OCC2CCCO2)cc2n1CCc1cc(OCC3CCCO3)ccc1-2 (stereo not drawn) [compound 52, 2,9-bis-(tetrahydro-furan-2-ylmethoxy)-6,7-dihydro-pyrimido[6,1-a]isoquinolin-4-one]"
27,0.01 to 100 nM,"CC(C)c1nc(COc2ccc3c(c2)CCn2c-3cc(OCC3COc4ncccc4O3)nc2=O)no1 (stereo not drawn) [compound 157, 2-(2,3-dihydro-[1,4]dioxino[2,3-b]pyridin-2-ylmethoxy)-9-(5-isopropyl-[1,2,4]oxadiazol-3-ylmethoxy)-6,7-dihydro-pyrimido[6,1-a]isoquinolin-4-one]"
28,0.01 to 100 nM,"N#Cc1ccc(-c2ccc3c(c2)CCn2c-3cc(OCC3COc4ncccc4O3)nc2=O)cn1 (stereo not drawn) [compound 162, 5-[2-(2,3-dihydro-[1,4]dioxino[2,3-b]pyridin-2-ylmethoxy)-4-oxo-6,7-dihydro-pyrimido[6,1-a]isoquinolin-9-yl]-pyridine-2-carbonitrile]"
29,0.01 to 100 nM,"N#Cc1ccccc1COc1ccc2c(c1)CCn1c-2cc(OCC2CCCO2)nc1=O (stereo not drawn) [compound 20, 2-[4-oxo-2-(tetrahydro-furan-2-ylmethoxy)-6,7-dihydro-4H-pyrimido[6,1-a]isoquinolin-9-yloxymethyl]-benzonitrile]"
30,0.01 to 100 nM,"COc1ccc(OCCOc2ccc3c(c2)CCn2c-3cc(OCC3CCCO3)nc2=O)cc1 (stereo not drawn) [compound 42, 9-[2-(4-methoxy-phenoxy)-ethoxy]-2-(tetrahydro-furan-2-ylmethoxy)-6,7-dihydro-pyrimido[6,1-a]isoquinolin-4-one]"
